Test results published in ChEMBL document CHEMBL1151539, “The synthesis and evaluation of diacylglycerol analogues as potential second-messenger antagonists” (Bioorg Med Chem Lett, 1992).

Columns and labels:
HT-29 [1] = experiment: Concentration required for inhibiting the growth of HT-29 cells; 0.1-1.0; format: functional, Homo sapiens
Protein kinase C (PKC) = experiment: Inhibition of protein kinase C; format: protein assay, Rattus norvegicus
MR4 [2] = experiment: Concentration required for inhibiting the growth of MR4 cells; 0.1-1.0; format: functional, Mus musculus
HT-29 [3] = experiment: Concentration required for inhibiting the growth of HT-29 cells; 0.05-0.1; format: functional, Homo sapiens
MR4 [4] = experiment: Concentration required for inhibiting the growth of MR4 cells; 0.05-0.1; format: functional, Mus musculus

| Structure (SMILES) | I80 (HT-29 [1]) | I50 (Protein kinase C (PKC)) | I80 (MR4 [2]) | I80 (HT-29 [3]) | I80 (MR4 [4]) |
| --- | --- | --- | --- | --- | --- |
| CCCCCCCC(=O)OCC(COC)OC(=O)CCCCCCC (configuration not stated) | 0.1 mM | 0.1 mM | 0.1 mM | – | – |
| CCCCCCCC(=O)OCC(CO)OC(=O)CCCCCCC (configuration not stated) [MONOCTANOIN COMPONENT C] | – | – | – | 0.05 mM | 0.05 mM |
| CCCCCCCC(=O)OCC(COC(C)=O)OC(=O)CCCCCCC (configuration not stated) | – | 0.01 mM | – | – | 0.05 mM |
